# Tests used:
# [1] = tested on: human intestinal Caco-2 cell monolayers; assay: Bidirectional transport across Caco-2 cell monolayers (concentration, time, pH, temperature; control without inhibitor); format: in vitro ADME
# Description: (§1) Cells were maintained in DMEM with 10% FBS, 1× nonessential amino acids, and 1× penicillin and streptomycin at 37°C with 5% CO2. Cells of passage 35-40 were used in this study to maintain relatively constant cellular phenotypes. The medium was replaced every 2-3 days during incubation. After reaching approximately 80% confluence, the cells were detached using 0.02% ethylenediaminetetraacetic acid (EDTA) and 0.05% trypsin at a density of 5.3×10^4 cells/cm^2 on a 60-mm plastic culture dish for the uptake experiment or a 12-mm polyester membrane insert in a 12-well plate for the permeation experiment. The media in the culture plates were changed every two days for the first week after seeding and replaced daily afterward. The integrity of the cell monolayers was examined by measuring the transepithelial electrical resistance (TEER) with a Millicell-ERS-electrode (Millipore Corp, Billerica, MA, USA). After 21-23 days, monolayers with a TEER value (TEER=[TEERtest- TEERbackground]×area) above 500Ωcm^2 were used during the transport experiments.
# (§2) Before the experiments, the human intestinal Caco-2 cell monolayers were washed twice with HBSS medium (pH 7.4). The transport experiments were conducted by adding the drug solutions (containing 1% DMSO) to either the apical (AP, 0.5 mL) or basolateral side (BL, 1.0 mL), while the receiving chamber contained the corresponding volume of blank HBSS medium. The monolayers were incubated at 37°C, and 50 μL samples were taken at 15, 30, 45, 60, 90, and 120 min from the acceptor compartment, and the volume was then immediately replaced with50 μL of fresh, prewarmed blank HBSS. TEER measurements for assessing the membrane integrity took place before and after the experiment. The samples were frozen immediately and stored below −80°C before analysis.
# (§3) The loganin transport (20 μM) at 4°C and 37°C was evaluated in the AP to BL direction to investigate the effect of temperature. The effect of pH on the loganin transport (20 μM) in the AP to BL direction was studied using the following pH combinations for the HBSS in the acceptor/donor compartments: 6.0/7.4 and 7.4/7.4.
# (§4) UPLC-MS/MS data acquisition was performed using Analyst 1.5.2 and MultiQuant 2.1.1 software (Applied Biosystems). The data were analyzed by SPSS Software. The apparent permeability coefficient (Papp) was calculated according to Papp = (dQ/dt)/(A·C0)
# (§5) where dQ/dt is the steady-state flux (nmol/s), A is the surface area of the insert (cm^2); C0 is the initial concentration. The efflux ratio (P) was determined by calculating the ratio of PappBA versus PappAB as in(1) P=PappBA/PappAB Statistical analysis was performed with analysis of variance (ANOVA) after confirmation of normal distributions.
# [2] = as above; format: in vitro ADME, human; settings: human; for Papp A→B at 60 min, 20 µM: Caco-2, pH 7.4, loganin 20 μM, AP to BL
# Description: as §1, §2, §3, §4, §5
# [3] = tested on: MRPs; assay: Loganin transport across Caco-2 monolayers with MRPs inhibitor MK 571; format: in vitro ADME, human; set-up: key to Modulatory effect: +: Indicates that the inhibitor has significant effect on the loganin transport
# Description: as §2
# (§6) Several efflux and influx transporters were investigated for their effects on the transport flux of loganin. One hundred μM verapamil was added to evaluate the selectivity of P-glycoprotein (P-gp); inhibiting the efflux by multidrug resistance-associated proteins (MRPs) was undertaken by adding 100μM MK571, 50μM benzbromarone, and 200μM indomethacin [21–23]; 25 μM apigenin was used to investigate breast cancer resistance protein (BCRP); 50 μM sodium vanadate and cimetidine were used as Na^+/K^+pump and […] inhibitors.
# as §4, §5
# [4] = target: T1, BCRP (Homo sapiens, UniProt Q9UNQ0); assay: Loganin transport across Caco-2 monolayers with BCRP inhibitor apigenin; format: in vitro ADME; set-up: key to Modulatory effect: +: Indicates that the inhibitor has significant effect on the loganin transport
# T1 construct: endogenous in cells; host or cells: Caco-2 monolayers
# T1 sequence (Q9UNQ0 1-655): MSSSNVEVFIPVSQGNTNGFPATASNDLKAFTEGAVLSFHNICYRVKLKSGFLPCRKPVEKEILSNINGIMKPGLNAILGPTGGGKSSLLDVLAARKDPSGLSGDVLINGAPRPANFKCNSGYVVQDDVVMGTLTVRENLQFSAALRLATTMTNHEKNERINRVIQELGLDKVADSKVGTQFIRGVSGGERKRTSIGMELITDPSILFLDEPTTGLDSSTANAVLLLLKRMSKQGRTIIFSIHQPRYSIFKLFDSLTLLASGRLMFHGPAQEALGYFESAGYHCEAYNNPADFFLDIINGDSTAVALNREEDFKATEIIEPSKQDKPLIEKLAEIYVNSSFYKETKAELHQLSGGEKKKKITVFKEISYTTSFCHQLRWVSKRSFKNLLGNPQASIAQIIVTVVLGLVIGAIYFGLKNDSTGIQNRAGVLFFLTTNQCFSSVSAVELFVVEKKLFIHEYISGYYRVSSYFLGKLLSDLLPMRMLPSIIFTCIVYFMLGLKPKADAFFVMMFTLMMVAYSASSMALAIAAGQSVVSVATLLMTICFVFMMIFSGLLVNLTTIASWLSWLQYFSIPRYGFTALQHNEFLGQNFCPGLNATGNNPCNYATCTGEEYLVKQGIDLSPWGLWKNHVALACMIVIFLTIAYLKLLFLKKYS
# Description: as §2, §6, §4, §5
# [5] = tested on: T2, BCRP; assay: as above; format: in vitro ADME, human; set-up: key to Modulatory effect: +: Indicates that the inhibitor has significant effect on the loganin transport; settings: human, Caco-2, pH 7.4; with apigenin 25 μM, loganin 20 μM, n = 3
# T2 construct: endogenous in cells; host or cells: Caco-2 monolayers
# Description: as §2, §6, §4, §5
# [6] = set-up: method as in PMID 35540372; settings: rats; cited from earlier work
# [7] = tested on: OATs; assay: Loganin transport across Caco-2 monolayers with OATs inhibitor cimetidine; format: in vitro ADME, human
# Description: as §2, §6, §4, §5
# [8] = Caco-2, pH 7.4, control, no inhibitor, loganin 20 μM, n = 3
# [9] = human, Caco-2, pH 7.4, with MK571 100 μM, with MK 571 100 μM, loganin 20 μM, n = 3
# [10] = with 100 μM MK 571, 20 μM loganin
# [11] = human, Caco-2, pH 7.4, with cimetidine 50 μM, loganin 20 μM, n = 3
smiles,measurement,setting,value
"COC(=O)C1=CO[C@@H](O[C@@H]2O[C@H](CO)[C@@H](O)[C@H](O)[C@H]2O)[C@@H]2[C@@H](C)[C@@H](O)C[C@H]12 [loganin, Loganin]",Intestinal absorption indicated by Papp values (in words),[1]; classification by Papp > 1×10^−5cm/s = high absorption (>70%),good intestinal absorption
same,PappAB at pH 7.4 compared with pH 6 (in words),"[1]; loganin 20 μM, AP to BL, 60 min, p<0.05",significantly higher
same,"Papp A→B at 60 min, 20 µM",[2]; 4°C,7.12 ×10⁻⁶ cm/s
same,"Papp A→B at 60 min, 20 µM",[2]; 37°C,11.3 ×10⁻⁶ cm/s
same,"Papp A→B at 120 min, 20 μM",[2]; [8],13 ± 0.7 ×10⁻⁶ cm/s
same,"Papp B→A at 120 min, 20 μM",[2]; [8],11.7 ± 0.9 ×10⁻⁶ cm/s
same,"efflux ratio at 120 min, 20 μM","[2]; Caco-2, pH 7.4, control, no inhibitor, loganin 20 μM, read-out: P (efflux ratio PappBA/PappAB)",0.9
same,Papp A→B at 120 min,"[2]; Caco-2, pH 7.4, range over 5, 20, 40 and 80 μM loganin, read-out: Absorptive permeability PappAB (AP to BL)",12.2 to 14.8 ×10⁻⁶ cm/s
same,Papp B→A at 120 min,"[2]; Caco-2, pH 7.4, range over 5, 20, 40 and 80 μM loganin, read-out: Secretory permeability PappBA (BL to AP)",11.1 to 13 ×10⁻⁶ cm/s
same,Increase of transport from the apical to the basolateral side,"[3]; after addition of a MRP inhibitor (not named in the abstract), vs control",2.09 fold
same,"Papp A→B at 120 min, 20 μM",[3]; [9],27.2 ± 4.1 ×10⁻⁶ cm/s
same,"Papp B→A at 120 min, 20 μM",[3]; [9],3.9 ± 0.2 ×10⁻⁶ cm/s
same,"efflux ratio at 120 min, 20 μM","[3]; human, Caco-2, pH 7.4, with MK571 100 μM, with MK 571 100 μM, read-out: P (efflux ratio PappBA/PappAB)",0.14
same,PappAB relative to control group,[3]; [10],~2 fold
same,Reduction of PappBA vs control,[3]; [10],66.7%
same,Modulatory effect,[3]; with MK 571 100 μM,+
same,efflux ratio at 120 min,"[4]; human, Caco-2, pH 7.4, with apigenin 25 μM, read-out: P (efflux ratio PappBA/PappAB)",0.41
same,Substrate of BCRP (in words),[4]; judged from apigenin vs control,substrate
same,Modulatory effect,[4]; with apigenin 25 μM,+
same,"Papp A→B at 120 min, 20 μM",[5],30.1 ± 6.2 ×10⁻⁶ cm/s
same,"Papp B→A at 120 min, 20 μM",[5],12.3 ± 2.5 ×10⁻⁶ cm/s
same,Oral bioavailability (in words),[6],low
same,"efflux ratio at 120 min, 20 μM","[7]; human, Caco-2, pH 7.4, with cimetidine 50 μM, read-out: P (efflux ratio PappBA/PappAB)",0.9
same,"Papp A→B at 120 min, 20 μM",[7]; [11],11 ± 1.5 ×10⁻⁶ cm/s
same,"Papp B→A at 120 min, 20 μM",[7]; [11],9.9 ± 2 ×10⁻⁶ cm/s
same,Effect on Papp values (in words),[7]; pretreatment with 50 μM cimetidine,no significant effects

# From PMC6323428, “Elucidation of the Intestinal Absorption Mechanism of Loganin in the Human Intestinal Caco-2 Cell Model” (Evidence-based Complementary and Alternative Medicine : eCAM, 2018)
